# Results as given in US11072616B2, “Cyclic peptides targeting alpha-4-beta-7 integrin” (Zealand Pharma A/S, priority 2015, dated 2021).
# Like-named read-outs stand apart in the source and are kept apart here.
# Assays:
# DSS-treated mice = assay: 8-day efficacy study in DSS model (therapeutic) of ulcerative colitis; format: in vivo, C57Bl/6 mice; details: for reduction of DAI score: Day 8 vs DSS+vehicle; for reduction of lesion length: vs control vehicle treated-group
# Procedure: Animals. Female C57Bl/6 mice (Charles River, St-Constant, Qc), weighting 16-19 g at delivery were used for this study. Following arrival in the animal facility, all animals were subjected to a general health evaluation. An acclimation period of 7-14 days was allowed before the beginning of the study.
# Oral dosing of the test article and the vehicle. From Day 5 to Day 8, nacellins and the vehicle were administered as a single slow bolus (over approximately 5 seconds) via oral route (p.o.), according to the procedure of administration of solution by gavage: the animal was firmly restrained. A bulb-tipped gastric gavage needle of 22G was passed through the side of the mouth and was advanced towards the oesophagus. The test articles and the vehicle were dosed orally at 5 mL/kg.
# Intraperitoneal dosing of the test articles and the vehicle. On day 5, DATK32 antibody was administered in only on Day 5, as a single slow bolus (over approximately 5 seconds) via the i.p. route. […] Intraperitoneal administration was performed accordingly to the following procedure: the mouse was restrained manually and held with the head and body tilted downward. The tip of the needle (27 G) was inserted through the skin and just past the abdominal wall. A short pull back of the plunger of the syringe was done prior to administration of the solution to make sure that the syringe was not inserted in any abdominal organ (fluid would be pulled back into the syringe in this case).
# Inflammation Score. Once the mouse was euthanized, the colon was collected and its length was measured. Lesion length was also measured. Colon inflammation was scored based on severity of oedema and ulceration.
# Disease Activity Index (DAI) assessment. Body weight and DAI were measured on Day 5 in order to distribute DSS-treated animals in two uniform groups prior dosing. Specific symptoms associated to UC were scored based on the severity of each particular symptoms: 1—blood in stool (negative hemoccult, positive hemoccult, blood traces in stool visible, rectal bleeding); 2—stool consistency (normal, soft but still formed, very soft, diarrhea); 3—posture and fur (normal; ruffled fur; ruffled fur combined to slight hunched posture and slight dehydration; ruffled fur combined to hunched posture, dehydration and altered walking; moribund (euthanasia is mandatory before the animal reach this point). The overall DAI score was the sum of the three parameters (maximum score 9). Body weight measurement and DAI assessment were performed also on Day 8 to evaluate the effect of the treatments.
# [1] = system: CD3+CD4+α4β7+ T lymphocytes; assay: FACS analysis of T lymphocyte populations, 8-day DSS study; format: in vivo, C57Bl/6 mice
# Excerpt: Collection of samples. On Day 8, five hours after ET02451-01, ET02452-01 and vehicle dosing, the animals were euthanized by cardiac puncture under general anesthesia, according to the “Guide to the Care and Use of Experimental Animals” published by the CCAC. Blood was transferred in a Sarstedt tube containing EDTA. Mesenteric and peripheral (inguinal, auxiliary and brachial) lymph nodes were collected and transferred on ice in corresponding tubes containing cold PBS. Nodes were kept on ice until tissue preparation.
# Cell population labeling. Blood was withdrawn by cardiac puncture and collected on EDTA-coated tubes. Mensenteric lymph nodes (MLN) and peripheral lymph nodes (PLN) were also collected. Mononuclear cells from the tissues will be isolated using density gradient (Lympholyte) and they were stained with fluorescent antibodies. […] After washes, cells were fixed using BD Fix Solution. Percentage of different subpopulations of T lymphocytes were then analysed using FACSCalibur cytometer. Antibodies employed were the same as listed for the single-dose PD studies above.
# [2] = mouse, in vivo
# Procedure: (§1) Oral bioavailability of test compounds was conducted by assessing plasma exposure of following one or two oral doses in mice and, in some cases, comparing said plasma exposure with that following a single intravenous dose of the same compound.
# (§2) Body weights were recorded on the day of dosing.
# (§3) Dosing: The formulation containing the test compound were administered p.o. by gavage with disposable feeding needles.
# (§4) Sample processing/storage: All blood samples were transferred into K2EDTA tubes on wet ice and centrifuged within 5 min (3200×g for 5 min at 4° C.) to obtain plasma. Samples were stored frozen at −80° C. until bioanalysis.
# (§5) Instrumentation: AB Sciex API 4000 Q-TRAP MS/MS system equipped with an Agilent LC system with a binary pump, a solvent degasser, a thermostatted column compartment, a CTC autosampler and a divert valve installed between the column and mass spectrometer inlet.
# [3] = In vivo pharmacokinetic assessment, plasma; details: naïve mice
# Procedure: as §1, §2, §3, §4, §5
# [4] = In vivo pharmacokinetic assessment, colon; parameters: species or system CD-1 mice; details: for tmax: colon, naïve mice
# [5] = In vivo pharmacokinetic assessment, liver; parameters: species or system CD-1 mice
# Excerpt: In Vivo Pharmacokinetic Assessments in Rodents
# The livers will be blotted and weighed.
structure (smiles),measurement,setting,value
CC(C)C[C@@H]1NC(=O)c2ccc(-c3ccnc4ccccc34)c(c2)CNC(=O)[C@@H]2CCCN2[C@H](C(=O)NC(C)(C)C)[C@H](C)NC(=O)[C@H]([C@@H](C)O)NC(=O)[C@H](CC(=O)O)NC1=O [ET02452],reduction of DAI score,"DSS-treated mice; i.p.: ET02452-01 65 mg/kg Day 5-8, DATK32 15 mg/kg Day 5",46%
same,reduction of lesion length,"DSS-treated mice; i.p.: ET02452-01 65 mg/kg, DATK32 15 mg/kg Day 5",20%
same,reduction of DAI score,"DSS-treated mice; oral 40 mg/kg, Day 5 to Day 8",did not have any beneficial effect
same,reduction of lesion length,DSS-treated mice; oral 40 mg/kg,53%
same,CD3+CD4+α4β7+ cell population in mesenteric lymph nodes,"[1]; i.p.: ET02452 65 mg/kg, DATK32 15 mg/kg",significant decrease
same,oral bioavailability / absorption (in words),[2]; po,low oral bioavailability
CC(C)C[C@@H]1NC(=O)c2ccc(-c3ccc(N4CCNCC4)cc3)c(c2)CNC(=O)[C@@H]2CCCN2[C@H](C(=O)NC(C)(C)C)[C@H](C)NC(=O)[C@H]([C@@H](C)O)NC(=O)[C@H](CC(=O)O)NC1=O [ET02451],reduction of DAI score,"DSS-treated mice; oral 40 mg/kg, Day 5 to Day 8",15%
same,lesion/colon length,"DSS-treated mice; oral 40 mg/kg, vehicle group 40%",12%
same,reduction of lesion length,DSS-treated mice; oral 40 mg/kg,significantly reduced the lesion length
same,AUC0-tiast,[3]; single i.v. 5 mg/kg,778 ng·h/mL
same,tmax,[3]; single i.v. 5 mg/kg,4.98 min
same,Cmax,[3]; single p.o. 40 mg/kg,4638 ng/mL
same,CD3+CD4+α4β7+ cell population in mesenteric lymph nodes,[1]; p.o. 40 mg/kg,significant decrease
same,tmax,[4]; single i.v. 5 mg/kg,2.00 h
same,tmax,[4]; single p.o. 40 mg/kg,2.00 h
same,oral bioavailability in colon,"[4]; mouse, in vivo",~100%
same,AUC0-inf,"[4]; mouse, in vivo, iv, 5 mg/kg",17140 ng·h/mL
same,AUC0-tlast,"[4]; mouse, in vivo, iv, 5 mg/kg",17109 ng·h/mL
same,MRT0-inf,"[4]; mouse, in vivo, iv, 5 mg/kg",3.43 h
same,half-life in colon,"[4]; mouse, in vivo, po",greater than 21 hours
same,AUC0-inf,"[4]; mouse, in vivo, po, 40 mg/kg",145327 ng·h/mL
same,AUC0-tlast,"[4]; mouse, in vivo, po, 40 mg/kg",130746 ng·h/mL
same,MRT0-inf,"[4]; mouse, in vivo, po, 40 mg/kg",4.59 h
same,tmax,"[5]; liver, single i.v. 5 mg/kg, naïve mice",0.0833 h
same,bioavailability in the liver,"[5]; mouse, in vivo",~8%
same,main route of elimination,"[5]; mouse, in vivo",hepatobiliary clearance
same,AUC0-inf,"[5]; mouse, in vivo, iv, 5 mg/kg",8460 ng·h/mL
same,AUC0-tlast,"[5]; mouse, in vivo, iv, 5 mg/kg",8289 ng·h/mL
same,MRT0-inf,"[5]; mouse, in vivo, iv, 5 mg/kg",2.00 h
same,half-life in liver,"[5]; mouse, in vivo, po",~8 h
same,AUC0-inf,"[5]; mouse, in vivo, po, 40 mg/kg",6054 ng·h/mL
same,AUC0-tlast,"[5]; mouse, in vivo, po, 40 mg/kg",6024 ng·h/mL
same,MRT0-inf,"[5]; mouse, in vivo, po, 40 mg/kg",2.11 h
same,tmax,"[5]; mouse, in vivo, po, 40 mg/kg",2.00 h
same,F,"[2]; iv, 5 mg/kg",100%
same,elimination half-life in plasma,[2]; po,~30 min
same,oral bioavailability / absorption (in words),[2]; po,significant absorption from the gut and systemic exposure following oral dosing
same,AUC0-tiast,"[2]; po, 40 mg/kg",686 ng·h/mL
same,F,"[2]; po, 40 mg/kg",11.0%
